Test results published in patent publication US20060222671A1, “Dermatological compositions and salts for the treatment of dermatological diseases” (Astion Development A/S, priority 2005, published 2006).
“Also recorded” adds a separate entry of the source.

Legend:
[1] = test system: oxazolone induced ear inflammation in mice; assay: Oxazolone induced mouse ear oedema assay; type: in vivo; conditions: for % inhibition of ear swelling: 24 hours after challenge; for inhibition of the formation of ear oedema: Example 7: 500 μg/ear dissolved in 96% ethanol
Description: This screening method is commonly employed for screening and evaluation of anti-inflammatory drugs, in particular with respect to the inflammation seen in contact dermatitis. Betamethasone-17 valerate was used as the positive control. […] Betamethasone was administered topically in quantities of 20 μg/ear. Betamethasone was applied in the commercial form Celeston valerate® 0.1%. All groups were immunised with 20 μl oxazolone, 1.6% in ethanol 96% (w/v) on the left and the right ear. The ear thickness of all mice on both the left and right side was measured with an electronic measuring gauge. All groups were challenged with 20 μl oxazolone (1.6% in ethanol 96% (w/v)) on the left ear and the right ear. Vehicle (acetone) or test article solutions were administered 20 minutes before and 20 minutes after oxazolone challenge. 24 hours after oxazolone challenge the ear thickness of all mice was measured with an electronic measuring gauge. Mean thickness of the ears and standard deviations were calculated. Ear swelling was calculated as the difference between the ear thickness day 7 and day 8. […] Differences in ear swelling between the vehicle treated group and the other groups were tested for significance employing a non-parametric statistical method of analysis, the Mann-Whitney U test. The required level of significance was p<0.05. […] Both test articles were applied in a dose of 500 μg/ear and dissolved in 96% ethanol. Betamethasone, as the positive control was administered topically in quantities of 20 μg/ear.

skin = conditions: in vivo; cited from earlier work
Phosphodiesterase PDE IV = Phosphodiesterase PDE IV enzyme assay (MDS Pharma Service No. 154000); type: biochemical
Description: (§1) The enzyme assays were conducted by MSD Pharma Services.

[2] = biological target: T1, Protein Tyrosine Kinase, ZA70 (ZAP-70) (Homo sapiens, UniProt P43403); assay: Protein Tyrosine Kinase ZA70 (ZAP-70) enzyme assay (MDS Pharma Service No. 155987); type: biochemical
T1 construct: purchased MDS Pharma Services (contract assay) 155987
T1 sequence (P43403 1-619): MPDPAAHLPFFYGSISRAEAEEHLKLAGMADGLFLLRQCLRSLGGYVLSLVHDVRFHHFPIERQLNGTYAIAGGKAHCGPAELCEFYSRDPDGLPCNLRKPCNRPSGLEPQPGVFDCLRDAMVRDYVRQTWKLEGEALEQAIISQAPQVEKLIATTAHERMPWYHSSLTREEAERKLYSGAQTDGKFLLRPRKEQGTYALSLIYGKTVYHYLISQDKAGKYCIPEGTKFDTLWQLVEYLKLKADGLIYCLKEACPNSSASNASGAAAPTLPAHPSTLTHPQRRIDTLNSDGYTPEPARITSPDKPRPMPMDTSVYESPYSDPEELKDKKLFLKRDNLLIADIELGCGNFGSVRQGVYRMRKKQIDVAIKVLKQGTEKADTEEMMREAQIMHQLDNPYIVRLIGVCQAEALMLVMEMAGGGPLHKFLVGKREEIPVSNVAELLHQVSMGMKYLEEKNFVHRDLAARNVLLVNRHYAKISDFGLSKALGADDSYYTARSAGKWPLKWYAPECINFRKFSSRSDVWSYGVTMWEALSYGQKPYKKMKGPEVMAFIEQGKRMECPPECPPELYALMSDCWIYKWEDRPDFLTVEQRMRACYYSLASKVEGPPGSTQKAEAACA
Description: as §1

[3] = biological target: T2, Protein Tyrosine Kinase, SYK (Homo sapiens, UniProt P43405); assay: Protein Tyrosine Kinase SYK enzyme assay (MDS Pharma Service No. 155761); type: biochemical
T2 construct: purchased MDS Pharma Services (contract assay) 155761
Description: as §1

guinea pig skin [4] = conditions: in vivo
Description: Test for skin sensitization is carried out according to the Magnusson and Kligman method (J. Invest. Dermatol. 1969. 52, 268-276) and in accordance with O.E.C.D. Guideline No. 406 of Jul. 17th, 1992, and the test method B.6 of the 96/54 E.E.C Directive.
Albino guinea pigs of Dunkin-Hartley strain were exposed to the test item after an acclimatisation period of at least five days.
The Maximum Non Necrotizing Concentration (M.N.N.C.) was determined by injecting by intradermal route the following concentrations: 2.5%, 1.25%, 0.625%, 0.3125%, 0.1562% and 0.078% diluted in physiological saline solution.
Pre-Maximum Non Irritant Concentration (pre-M.N.I.C.) was determined by application of the test item under an occlusive dressing during 24 hours, at the following concentrations: 2.5%, 1.25%, 0.625%, 0.3125% diluted in physiological saline solution.
Maximum Non Irritant Concentration (M.N.I.C.) was determined by initially establishing an induction phase by intradermal injection with a physiological saline solution and by topical application of distilled water followed by a 18-day rest phase. In the challenge phase where the test item is under occlusive dressing for 24 hours, the test item was applied to the skin of the Albino guinea pigs at the following concentrations: 2.5%, 1.25%, 0.625%, 0.3125% diluted in physiological saline solution.

undamaged skin area = assay: Acute dermal irritation; type: in vivo; conditions: for cutaneous reactions (erythema and oedema): 0.5 mL patch
Description: The sample was applied at a dose of 0.5 mL, on an undamaged skin area of the right flank of each animal. The patch was secured in position with a strip of surgical adhesive tape.
On the left flank an untreated area served as the control.
The skin reactions were evaluated after 1 hour and then after 24, 48 and 72 hours following removal of the patch according to the following grading scale:
Erythema (0: No erythema, 1: Slight (barely perceptible) erythema, 2: Definite erythema, 3: Moderate to severe erythema, 4: Severe erythema (purple) with formation of eschars (deep lesions) preventing erythema from being grading).
Oedema (0: No oedema, 1: Very slight (barely perceptible) oedema, 2: Slight oedema (contour clearly defined), 3: Moderate oedema (thickness), 4: Severe oedema (thickness greater than 1 mm, surface larger than zone of application)

[5] = 25° C.; cited from earlier work
activated monocytes = conditions: cited from earlier work
guinea pig skin [6] = conditions: in vivo; remark: listed apart in the source
Description: Test for photo toxicity is carried out to evaluate the risk of cutaneous reactions on the guinea pig following exposure to ultraviolet radiation.
Thirty minutes after the treatment, the animals were subjected to ultraviolet radiations (UV-B first and then UV-A).
The animals were irradiated with the irradiation source VLX 3W (Biotronic, Vilbert Lourmat) at the Maximal Non Erythemateous Dose (M.N.E.D) 7000 J/cm2 for UV-A and 150 mJ/cm2 for the UV-B.
A macroscopic evaluation of the cutaneous reactions (erythema and oedema) was conducted 24 and 48 hours after irradiation.

NF-kappaB activation = conditions: in inflammatory cells; cited from earlier work
[7] = biological target: T3, anandamide hydrolase (a fatty acid amide hydrolase) (Homo sapiens, UniProt O00519); conditions: in neurons; cited from earlier work
T3 construct: host or cells: neurons
T3 sequence (O00519 1-579): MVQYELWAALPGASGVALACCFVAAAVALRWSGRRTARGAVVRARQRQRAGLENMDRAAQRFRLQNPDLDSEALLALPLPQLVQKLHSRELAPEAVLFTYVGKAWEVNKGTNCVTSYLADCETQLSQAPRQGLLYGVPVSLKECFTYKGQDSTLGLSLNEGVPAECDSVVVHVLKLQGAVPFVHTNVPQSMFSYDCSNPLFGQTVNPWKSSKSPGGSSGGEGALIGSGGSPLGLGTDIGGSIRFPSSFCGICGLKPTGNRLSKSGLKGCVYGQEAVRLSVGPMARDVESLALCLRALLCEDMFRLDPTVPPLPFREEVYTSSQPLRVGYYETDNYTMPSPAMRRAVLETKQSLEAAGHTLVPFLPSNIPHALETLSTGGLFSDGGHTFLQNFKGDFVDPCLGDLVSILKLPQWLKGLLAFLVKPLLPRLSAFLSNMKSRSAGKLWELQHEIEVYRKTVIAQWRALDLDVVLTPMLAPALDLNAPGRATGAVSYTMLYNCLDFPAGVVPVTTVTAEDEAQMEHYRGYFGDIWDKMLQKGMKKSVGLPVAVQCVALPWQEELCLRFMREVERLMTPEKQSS

[8] = test system: inflammation following treatment with cryotherapy; conditions: topical; moderate to severe inflammation following cryotherapy; cited from earlier work
human skin inflammation = conditions: topical treatment; cited from earlier work
[9] = test system: chronic stable plaque psoriasis; conditions: topical 1%; cited from earlier work
contact dermatitis = conditions: topically applied; cited from earlier work
[10] = Oxaprozin as the monoethanolamine salt
[11] = monoethanolamine salt 5% by weight in water

CCCCC(=O)O[C@]1(C(=O)CO)[C@@H](C)C[C@H]2[C@@H]3CCC4=CC(=O)C=C[C@]4(C)[C@@]3(F)[C@@H](O)C[C@@]21C [Betamethasone 17-valerate]
% inhibition of ear swelling ([1]; 20 μg/ear topical (Celeston valerate 0.1%)): 66%

CCCCOc1ccc(CC(=O)NO)cc1 [Bufexamac]
cutaneous side effects (skin): reported to cause contact allergy; also recorded: major contact allergens | inhibition of the formation of ear oedema [1]: did not inhibit the formation of ear oedema at all | inhibitory effect on the PDE-IV enzyme (Phosphodiesterase PDE IV): exhibits inhibitory effect | inhibitory effect on Protein Tyrosine Kinase ZAP-70 [2]: only exhibits inhibitory effect on the PDE-IV enzyme | inhibitory effect on Protein Tyrosine Kinase SYK [3]: only exhibits inhibitory effect on the PDE-IV enzyme

O=C(O)Cc1ccccc1Nc1c(Cl)cccc1Cl [Diclofenac]
cutaneous side effects (skin): irritant-type contact dermatitis may develop

CC(C(=O)O)c1cccc(C(=O)c2ccccc2)c1 (stereo not shown) [Ketoprofen]
cutaneous side effects (skin): major contact allergens

O=C(O)CCc1nc(-c2ccccc2)c(-c2ccccc2)o1 [Monoethanolamine Oxaprozin]
% inhibition of ear swelling ([1]; 250 μg/ear topical in acetone, 20 min before and after challenge): 53% | % inhibition of ear swelling ([1]; 500 μg/ear topical in acetone, 20 min before and after challenge): 77% | % inhibition of ear swelling ([1]; 1000 μg/ear topical in acetone, 20 min before and after challenge): 95% | inhibition of ear swelling (in words) ([1]; 250-1000 μg/ear): dose dependent and highly significant inhibition of ear swelling | inhibition of ear swelling compared with positive control ([1]; highest dose (1000 μg/ear) vs Betamethasone 17-valerate 20 μg/ear): significantly stronger than the inhibition obtained with Betamethasone 17-valerate | IC50 (Phosphodiesterase PDE IV; [10]): 22 µM | IC50 [2, 10]: 38 µM | skin sensitization (guinea pig skin [4]): not causing sensitization reactions | IC50 [3, 10]: 28 µM

O=C(O)CCc1nc(-c2ccccc2)c(-c2ccccc2)o1 [Oxaprozin, 4,5-diphenyl-2-oxazole-propionic acid]
cutaneous reactions (erythema and oedema) (undamaged skin area; monoethanolamine salt 2.5% by weight in water, 1, 24, 48, 72 hours): no cutaneous reactions (erythema and oedema) were observed | reversibility of erythema (undamaged skin area; [11]): totally reversible between the 2nd and the 3rd day of the test | cutaneous reactions (erythema and oedema) (undamaged skin area; [11]): only a slight erythema on the treated area at the reading time 1 hour | inhibition of the formation of ear oedema [1]: statistically significant inhibition of the formation of ear oedema | solubility in water [5]: about 1.7 mg/ml | apoptosis of activated monocytes (activated monocytes): induces apoptosis of activated monocytes in a dose-dependent manner | photo toxicity (guinea pig skin [6]): not phototoxic | inhibition of NF-kappaB activation (NF-kappaB activation): inhibits | inhibition of anandamide hydrolase [7]: inhibits

CC(=O)Oc1ccccc1C(=O)O [aspirin]
cutaneous side effects (skin): may induce urticarial reactions

CCC(=O)O[C@]1(C(=O)CCl)[C@@H](C)C[C@H]2[C@@H]3CCC4=CC(=O)C=C[C@]4(C)[C@@]3(F)[C@@H](O)C[C@@]21C [clobetasol propionate]
relief of erythema and oedema [8]: proved to have effect

CC(C(=O)O)c1ccc(-c2ccccc2)c(F)c1 (stereo not shown) [flubiprofen]
effect on human skin inflammation (human skin inflammation): reduces human skin inflammation

COc1ccc2c(c1)c(CC(=O)O)c(C)n2C(=O)c1ccc(Cl)cc1 [indomethacin]
cutaneous side effects (skin): may induce urticarial reactions | effect on chronic stable plaque psoriasis [9]: no effect | response in animal model of contact dermatitis (contact dermatitis): shown to respond | relief of erythema and oedema [8]: poor effect in relieving the erythema and oedema

CN1C(C(=O)Nc2ccccn2)=C(O)c2ccccc2S1(=O)=O [piroxicam]
cutaneous side effects (skin): can lead to phototoxic or photo allergic dermatitis
